Results reported in US10934310B2, “Inhibitors of Bruton's tyrosine kinase and method of their use” (JANSSEN PHARMACEUTICA NV, priority 2015, dated 2021).

Each molecule was assayed against unphosphorylated-BTK kinase domain (UP-BTK), GST-tagged human BTK (389-659aa) (Homo sapiens (Human), UniProt Q06187) (assay: BTK Kinase Lanthascreen Binding Assay). Conditions: Lanthascreen binding, 60 minutes incubation; pIC50 = negative log of the IC50 in molar.
Procedure: BTK Kinase Lanthascreen Binding Assay:
A BTK kinase lanthascreen binding assay monitors compound binding to unphosphorylated-BTK kinase domain (UP-BTK), by competing with a fluorescent labeled tracer. […] Data were analyzed using Xlfit™ version 5.3 from ID Business Solutions (Guildford), Microsoft Excel add-in. pIC50 refers to the negative log of the IC50 in molar.

Sequence of unphosphorylated-BTK kinase domain (UP-BTK), GST-tagged human BTK (389-659aa) (Q06187 389-659): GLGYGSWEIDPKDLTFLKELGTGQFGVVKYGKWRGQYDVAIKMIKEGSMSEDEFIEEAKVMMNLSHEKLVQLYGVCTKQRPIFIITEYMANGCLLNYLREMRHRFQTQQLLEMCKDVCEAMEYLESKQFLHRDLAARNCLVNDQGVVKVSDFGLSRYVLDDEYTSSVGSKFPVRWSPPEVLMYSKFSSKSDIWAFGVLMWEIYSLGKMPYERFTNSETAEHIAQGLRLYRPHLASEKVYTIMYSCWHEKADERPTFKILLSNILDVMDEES

| Compound | BTK_I_binding pIC50 |
| --- | --- |
| C=CC(=O)N[C@H]1CCC[C@H]1NC(=O)c1sc2nccc3c2c1NC(=O)N3c1ccc(O[C@H]2CCOC2)cc1C [Example 383, N-((1R,2S)-2-Acrylamidocyclopentyl)-5-(2-methyl-4-(((S)-tetrahydrofuran-3-yl)oxy)phenyl)-4-oxo-4,5-dihydro-3H-1-thia-3,5,8-triazaacenaphthylene-2-carboxamide] | 7.45 |
| CCC(=O)N[C@H]1CCC[C@@H](NC(=O)c2sc3nccc4c3c2NC(=O)N4c2cnc(Oc3ccccc3)cc2C)C1 (single isomer, unassigned) [Example 385, 5-(*S)-(4-Methyl-6-phenoxypyridin-3-yl)-4-oxo-N-((1R,3S)-3-propionamidocyclohexyl)-4,5-dihydro-3H-1-thia-3,5,8-triazaacenaphthylene-2-carboxamide] | 7.98 |
| C=CC(=O)N[C@@H]1CCC[C@H]1NC(=O)c1sc2nccc3c2c1NC(=O)N3c1ccnc(-c2cccnc2)c1 [Example 326, 5-([2,3′-Bipyridin]-4-yl)-N-((1R,2R)-2-acrylamidocyclopentyl)-4-oxo-4,5-dihydro-3H-1-thia-3,5,8-triazaacenaphthylene-2-carboxamide] | 6.72 |

Next, values leading:

| BTK_I_binding pIC50 | Compound |
| --- | --- |
| 6.33 | Cc1cc(Oc2ccccc2)ccc1N1C(=O)Nc2c(C(=O)NC3CCCCC3)sc3nccc1c23 [Example 462, N-Cyclohexyl-5-(2-methyl-4-phenoxyphenyl)-4-oxo-4,5-dihydro-3H-1-thia-3,5,8-triazaacenaphthylene-2-carboxamide] |
| 6.67 | Cc1cc(Oc2ccccc2)ccc1N1C(=O)Nc2c(C(=O)N[C@@H]3CCCC[C@H]3NC(=O)CN(C)C)sc3nccc1c23 (single isomer, unassigned) [Example 447, N-((1R,2R)-2-(2-(Dimethylamino)acetamido)cyclohexyl)-5-(*S)-(2-methyl-4-phenoxyphenyl)-4-oxo-4,5-dihydro-3H-1-thia-3,5,8-triazaacenaphthylene-2-carboxamide] |
| 7.97 | C=CC(=O)N[C@@H]1CCC[C@H]1NC(=O)c1sc2nccc3c2c1NC(=O)N3c1ccc(Oc2ccccc2)nc1C (single isomer, unassigned) [Example 301, N-((1R,2R)-2-Acrylamidocyclopentyl)-5-(*S)-(2-methyl-6-phenoxypyridin-3-yl)-4-oxo-4,5-dihydro-3H-1-thia-3,5,8-triazaacenaphthylene-2-carboxamide] |
| 6.46 | CC(=O)N[C@H]1CCC[C@H](NC(=O)c2sc3nccc4c3c2NC(=O)N4c2cnc(Oc3ccccc3)cc2C)C1 (single isomer, unassigned) [Example 400, N-((1S,3S)-3-Acetamidocyclohexyl)-5-(*S)-(4-methyl-6-phenoxypyridin-3-yl)-4-oxo-4,5-dihydro-3H-1-thia-3,5,8-triazaacenaphthylene-2-carboxamide] |

Same assay, conditions: compound, 50 nM Tracer 236, 2 nM anti-GST antibody, 60 minutes; pIC50 = negative log of the IC50 in molar

| Compound | BTK_I_binding pIC50 |
| --- | --- |
| C=CC(=O)N[C@H]1CCCC[C@H]1NC(=O)c1sc2nccc3c2c1NC(=O)N3c1cnc(OCC(C)C)cc1C [Example 225, N-((1R,2S)-2-Acrylamidocyclohexyl)-5-(6-isobutoxy-4-methylpyridin-3-yl)-4-oxo-4,5-dihydro-3H-1-thia-3,5,8-triazaacenaphthylene-2-carboxamide] | 7.66 |
| C=CC(=O)N[C@H]1CCC[C@H]1NC(=O)c1sc2nccc3c2c1NC(=O)N3c1cc(-c2ccccc2)ccn1 [Example 189, N-((1R,2S)-2-Acrylamidocyclopentyl)-4-oxo-5-(4-phenylpyridin-2-yl)-4,5-dihydro-3H-1-thia-3,5,8-triazaacenaphthylene-2-carboxamide] | 8.23 |
| C=CC(=O)N[C@H]1CCCC[C@H]1NC(=O)c1sc2nccc3c2c1NC(=O)N3c1ccc(OC(C)C)nc1C (single isomer, unassigned) [Example 209, N-((1R,2S)-2-Acrylamidocyclohexyl)-5-(*S)-(6-isopropoxy-2-methylpyridin-3-yl)-4-oxo-4,5-dihydro-3H-1-thia-3,5,8-triazaacenaphthylene-2-carboxamide] | 7.31 |
| N[C@@H]1CC[C@H](NC(=O)c2sc3nccc4c3c2NC(=O)N4c2ccc(Oc3ccccc3)cc2)C1 [Example 164, N-((1S,3R)-3-Aminocyclopentyl)-4-oxo-5-(4-phenoxyphenyl)-4,5-dihydro-3H-1-thia-3,5,8-triazaacenaphthylene-2-carboxamide] | 5.19 |

Next, values leading:

| BTK_I_binding pIC50 | Compound |
| --- | --- |
| 7.61 | C=CC(=O)N[C@H]1CC[C@@H](NC(=O)c2sc3nccc4c3c2NC(=O)N4c2ccc(Oc3ccccc3)cc2C)CC1 (single isomer, unassigned) [Example 1, N-((1S,4S)-4-Acrylamidocyclohexyl)-5-(*S)-(2-methyl-4-phenoxyphenyl)-4-oxo-4,5-dihydro-3H-1-thia-3,5,8-triazaacenaphthylene-2-carboxamide] |
| 6.67 | Cc1cc(Oc2ccccc2)ccc1N1C(=O)Nc2c(C(=O)NC3CCCC3)sc3nccc1c23 [Example 28, N-Cyclopentyl-5-(2-methyl-4-phenoxyphenyl)-4-oxo-4,5-dihydro-3H-1-thia-3,5,8-triazaacenaphthylene-2-carboxamide] |
| 8.16 | C=CC(=O)N[C@H]1CCC[C@H]1NC(=O)c1sc2nccc3c2c1NC(=O)N3c1ccc(Oc2ccccn2)cc1C [Example 220, N-((1R,2S)-2-acrylamidocyclopentyl)-5-(2-methyl-4-(pyridin-2-yloxy)phenyl)-4-oxo-4,5-dihydro-3H-1-thia-3,5,8-triazaacenaphthylene-2-carboxamide] |
| 6.36 | Cc1cc(Oc2ccccc2)ccc1N1C(=O)Nc2c(C(=O)N[C@H]3CCC[C@H]3NC(=O)CN)sc3nccc1c23 (single isomer, unassigned) [Example 154, N-((1S,2R)-2-(2-Aminoacetamido)cyclopentyl)-5-(*S)-(2-methyl-4-phenoxyphenyl)-4-oxo-4,5-dihydro-3H-1-thia-3,5,8-triazaacenaphthylene-2-carboxamide] |
| 7.55 | CC(=O)N[C@@H]1CCC[C@@H](NC(=O)c2sc3nccc4c3c2NC(=O)N4c2ccc(Oc3ccccc3)cc2C)C1 (single isomer, unassigned) [Example 195, N-((1R,3R)-3-Acetamidocyclohexyl)-5-(*S)-(2-methyl-4-phenoxyphenyl)-4-oxo-4,5-dihydro-3H-1-thia-3,5,8-triazaacenaphthylene-2-carboxamide] |
| 7.52 | CC(=O)N[C@H]1CCCC[C@H]1NC(=O)c1sc2nccc3c2c1NC(=O)N3c1ccc(Oc2ccccc2)cc1C (single isomer, unassigned) [Example 136, N-((1R,2S)-2-Acetamidocyclohexyl)-5-(*S)-(2-methyl-4-phenoxyphenyl)-4-oxo-4,5-dihydro-3H-1-thia-3,5,8-triazaacenaphthylene-2-carboxamide] |
| 7.12 | Cc1cc(Oc2ccccc2)ccc1N1C(=O)Nc2c(C(=O)N[C@H]3CCC[C@@H]3N(C)C)sc3nccc1c23 [Example 32, N-((1S,2S)-2-(Dimethylamino)cyclopentyl)-5-(2-methyl-4-phenoxyphenyl)-4-oxo-4,5-dihydro-3H-1-thia-3,5,8-triazaacenaphthylene-2-carboxamide] |
| 7.34 | CC(=O)N[C@@H]1CC[C@@H](NC(=O)c2sc3nccc4c3c2NC(=O)N4c2ccc(Oc3ccccc3)cc2C)C1 [Example 228, N-((1R,3R)-3-Acetamidocyclopentyl)-5-(2-methyl-4-phenoxyphenyl)-4-oxo-4,5-dihydro-3H-1-thia-3,5,8-triazaacenaphthylene-2-carboxamide] |
| 6.77 | Cc1cc(Oc2ccccc2)ccc1N1C(=O)Nc2c(C(=O)N[C@H]3CC[C@@H](NC#N)CC3)sc3nccc1c23 [Example 23, N-((1S,4S)-4-Cyanamidocyclohexyl)-5-(2-methyl-4-phenoxyphenyl)-4-oxo-4,5-dihydro-3H-1-thia-3,5,8-triazaacenaphthylene-2-carboxamide] |
| 5.95 | Cc1cc(Oc2ccccc2)ccc1N1C(=O)Nc2c(C(=O)N[C@H]3CCC[C@H]3N)sc3nccc1c23 [Example 53, N-((1S,2R)-2-Aminocyclopentyl)-5-(2-methyl-4-phenoxyphenyl)-4-oxo-4,5-dihydro-3H-1-thia-3,5,8-triazaacenaphthylene-2-carboxamide] |
| 7.40 | Cc1cc(Oc2ccccc2)ccc1N1C(=O)Nc2c(C(=O)N[C@@H]3CCC[C@@H]3NC(=O)CN)sc3nccc1c23 (single isomer, unassigned) [Example 131, N-((1R,2S)-2-(2-Aminoacetamido)cyclopentyl)-5-(*S)-(2-methyl-4-phenoxyphenyl)-4-oxo-4,5-dihydro-3H-1-thia-3,5,8-triazaacenaphthylene-2-carboxamide] |

Same assay, conditions: read-out: BTK_I_binding pIC50 (converted)

| IC50 | Compound |
| --- | --- |
| > 1 µM | Cc1cc(OC(C)C)ccc1N1C(=O)Nc2c(C(=O)N[C@@H]3CCCC[C@@H]3N)sc3nccc1c23 [Example 160, N-((1R,2S)-2-Aminocyclohexyl)-5-(4-isopropoxy-2-methylphenyl)-4-oxo-4,5-dihydro-3H-1-thia-3,5,8-triazaacenaphthylene-2-carboxamide] |
| > 1 µM | N[C@H]1CCC[C@H]1NC(=O)c1sc2nccc3c2c1NC(=O)N3c1cc(-c2ccccc2)cnn1 [Example 349, N-((1R,2S)-2-Aminocyclopentyl)-4-oxo-5-(5-phenylpyridazin-3-yl)-4,5-dihydro-3H-1-thia-3,5,8-triazaacenaphthylene-2-carboxamide] |
| > 1 µM | C=CC(=O)N[C@H]1CC[C@@H](NC(=O)c2sc3nccc4c3c2NC(=O)N4c2ccnc(-c3ccccc3)c2)C1 [Example 208, N-((1R,3S)-3-Acrylamidocyclopentyl)-4-oxo-5-(2-phenylpyridin-4-yl)-4,5-dihydro-3H-1-thia-3,5,8-triazaacenaphthylene-2-carboxamide] |
